Source: ChEMBL document CHEMBL4814006, “Novel amino substituted tetracyclic imidazo[4,5-b]pyridine derivatives: Design, synthesis, antiproliferative activity and DNA/RNA binding study” (Eur J Med Chem, 2021)
pIC50: −log10 of the molar value. Calls of active or inactive are those of the source. The rule behind the calls is not given here.

Key:
NCI-H460 = experiment: Antiproliferative activity against human NCI-H460 cells assessed as inhibition of cell growth incubated for 72 hrs by MTT assay; assay type: functional, cell-based; conditions: NCI-H460, 72 h
HCT-116 = experiment: Antiproliferative activity against human HCT-116 cells assessed as inhibition of cell growth incubated for 72 hrs by MTT assay; assay type: functional, cell-based; conditions: HCT-116, 72 h
MCF7 = experiment: Antiproliferative activity against human MCF7 cells assessed as inhibition of cell growth incubated for 72 hrs by MTT assay; assay type: functional, cell-based; conditions: MCF7, 72 h
HEK293 = experiment: Cytotoxicity against human HEK293 cells assessed as inhibition of cell growth incubated for 72 hrs by MTT assay; assay type: cell-based; conditions: HEK293, 72 h
Quadruplex DNA [1] = experiment: Binding affinity to human Tel22 G quadruplex DNA assessed as ratio of fluorescence intensity of compound-polynucleotide complex to fluorescence intensity of compound in sodium cacodylate buffer at pH 7 at binding stoichiometry ratio of 1:1 by fluorescence spectroscopy; assay type: nucleic-acid assay
[2] = tested on: Poly(dG-dC)oligonucleotide; experiment: Binding affinity to poly(dGdC)2 DNA (unknown origin) assessed as ratio of bound compound to polynucleotide phosphate in sodium cacodylate buffer at pH 7 by fluorescence spectroscopy based Scatchard method; assay type: nucleic-acid assay
[3] = tested on: Poly(dA-dU)oligonucleotide; experiment: Binding affinity to polyA-polyU RNA (unknown origin) assessed as ratio of bound compound to polynucleotide phosphate in sodium cacodylate buffer at pH 7 by fluorescence spectroscopy based Scatchard method; assay type: nucleic-acid assay
[4] = tested on: Poly(dA-dT)oligonucleotide; experiment: Binding affinity to poly(dAdT)2 DNA (unknown origin) in sodium cacodylate buffer at pH 7 by CD spectroscopy; assay type: nucleic-acid assay
[5] = tested on: Poly(dA-dT)oligonucleotide; experiment: Binding affinity to poly(dAdT)2 DNA (unknown origin) assessed as ratio of bound compound to polynucleotide phosphate in sodium cacodylate buffer at pH 7 by fluorescence spectroscopy based Scatchard method; assay type: nucleic-acid assay
[6] = tested on: Poly(dG-dC)oligonucleotide; experiment: Binding affinity to poly(dGdC)2 DNA (unknown origin) assessed as binding constant in sodium cacodylate buffer at pH 7 by fluorescence spectroscopy; assay type: nucleic-acid assay
Quadruplex DNA [7] = experiment: Binding affinity to human Tel22 G quadruplex DNA assessed as binding constant in sodium cacodylate buffer at pH 7 at binding stoichiometry ratio of 1:1 by fluorescence spectroscopy; assay type: nucleic-acid assay
[8] = tested on: Poly(dA-dU)oligonucleotide; experiment: Binding affinity to polyA-polyU RNA (unknown origin) assessed as ratio of fluorescence intensity of compound-polynucleotide complex to fluorescence intensity of compound in sodium cacodylate buffer at pH 7 by fluorescence spectroscopy based Scatchard method; assay type: nucleic-acid assay
[9] = tested on: Poly(dG-dC)oligonucleotide; experiment: Binding affinity to poly(dGdC)2 DNA (unknown origin) in sodium cacodylate buffer at pH 7 by CD spectroscopy; assay type: nucleic-acid assay
Calf thymus DNA [10] = experiment: Binding affinity to calf thymus DNA assessed as ratio of bound compound to polynucleotide phosphate in sodium cacodylate buffer at pH 7 by fluorescence spectroscopy based Scatchard analysis; conditions: Bos taurus
Calf thymus DNA [11] = experiment: Binding affinity to calf thymus DNA assessed as change in melting temperature in sodium cacodylate buffer at pH 7 at compound:polynucleotide concentration ratio of 0.3 by UV/Vis spectrophotometric analysis; assay type: nucleic-acid assay; conditions: Bos taurus
Calf thymus DNA [12] = experiment: Binding affinity to calf thymus DNA assessed as ratio of fluorescence intensity of compound-polynucleotide complex to fluorescence intensity of compound in sodium cacodylate buffer at pH 7 by fluorescence spectroscopy based Scatchard method; conditions: Bos taurus
[13] = tested on: Poly(dA-dU)oligonucleotide; experiment: Binding affinity to polyA-polyU RNA (unknown origin) assessed as binding constant in sodium cacodylate buffer at pH 7 by fluorescence spectroscopy; assay type: nucleic-acid assay
[14] = tested on: Poly(dA-dT)oligonucleotide; experiment: Binding affinity to poly(dAdT)2 DNA (unknown origin) assessed as change in melting temperature in sodium cacodylate buffer at pH 7 at compound:polynucleotide concentration ratio of 0.3 by UV/Vis spectrophotometric analysis; assay type: nucleic-acid assay
Calf thymus DNA [15] = experiment: Binding affinity to calf thymus DNA assessed as binding constant in sodium cacodylate buffer at pH 7 by fluorescence spectroscopy; conditions: Bos taurus
[16] = tested on: Poly(dA-dT)oligonucleotide; experiment: Binding affinity to poly(dAdT)2 DNA (unknown origin) assessed as ratio of fluorescence intensity of compound-polynucleotide complex to fluorescence intensity of compound in sodium cacodylate buffer at pH 7 by fluorescence spectroscopy based Scatchard method; assay type: nucleic-acid assay
[17] = tested on: Poly(dA-dU)oligonucleotide; experiment: Binding affinity to polyA-polyU RNA (unknown origin) assessed as change in melting temperature in sodium cacodylate buffer at pH 7 at compound:polynucleotide concentration ratio of 0.3 by UV/vis spectrophotometric analysis; assay type: nucleic-acid assay
[18] = tested on: Poly(dG-dC)oligonucleotide; experiment: Binding affinity to poly(dGdC)2 DNA (unknown origin) assessed as ratio of fluorescence intensity of compound-polynucleotide complex to fluorescence intensity of compound in sodium cacodylate buffer at pH 7 by fluorescence spectroscopy based Scatchard method; assay type: nucleic-acid assay
[19] = tested on: Poly(dA-dT)oligonucleotide; experiment: Binding affinity to poly(dAdT)2 DNA (unknown origin) assessed as binding constant in sodium cacodylate buffer at pH 7 by fluorescence spectroscopy; assay type: nucleic-acid assay
Quadruplex DNA [20] = experiment: Binding affinity to human Tel22 G quadruplex DNA assessed as change in melting temperature in sodium cacodylate buffer at pH 7 by UV/Vis spectrophotometric analysis; assay type: nucleic-acid assay
Quadruplex DNA [21] = experiment: Binding affinity to human Tel22 G quadruplex DNA in sodium cacodylate buffer at pH 7 by CD spectroscopy; assay type: nucleic-acid assay
Quadruplex DNA [22] = experiment: Binding affinity to human Tel22 G quadruplex DNA assessed as ratio of fluorescence intensity of compound-polynucleotide complex to fluorescence intensity of compound in sodium cacodylate buffer at pH 7 at binding stoichiometry ratio of 1:2 by fluorescence spectroscopy; assay type: nucleic-acid assay
[23] = tested on: Poly(dA-dU)oligonucleotide; experiment: Binding affinity to polyA-polyU RNA (unknown origin) in sodium cacodylate buffer at pH 7 by CD spectroscopy; assay type: nucleic-acid assay
Quadruplex DNA [24] = experiment: Binding affinity to human Tel22 G quadruplex DNA assessed as binding constant in sodium cacodylate buffer at pH 7 at binding stoichiometry ratio of 1:2 by fluorescence spectroscopy; assay type: nucleic-acid assay

CN(C)CCCNc1c(C#N)c2nc3cccnc3n2c2ccccc12
pIC50 (NCI-H460): 5.85 | pIC50 (HCT-116): 6.05 | pIC50 (MCF7): 5.54 | pIC50 (HEK293): 5.74

N#Cc1c(N2CCCCC2)c2ccccc2n2c1nc1ncccc12
pIC50 (NCI-H460): ≤ 4.00 | pIC50 (HCT-116): ≤ 4.00 | pIC50 (MCF7): ≤ 4.00

CC(C)CNc1c(C#N)c2nc3ncccc3n2c2ccccc12
Ratio (Quadruplex DNA [1]): 4.75 | Ratio [2]: < 0.1 | Ratio [3]: 0.1 | pIC50 (NCI-H460): 4.76 | Activity [4]: Active | pIC50 (HCT-116): 4.85 | Ratio [5]: < 0.1 | pIC50 (MCF7): 4.85 | log Ks [6]: 5.5 | log Ks (Quadruplex DNA [7]): 4.69 | Ratio [8]: 7.1 | Activity [9]: inactive | Ratio (Calf thymus DNA [10]): < 0.1 | ΔTm (Calf thymus DNA [11]): 0 °C | pIC50 (HEK293): < 4.00 | Ratio (Calf thymus DNA [12]): 2.2 | log Ks [13]: 4.7 | ΔTm [14]: 0 °C | log Ks (Calf thymus DNA [15]): 4.5 | Ratio [16]: 8.3 | ΔTm [17]: 0.6 °C | Ratio [18]: 0.5 | log Ks [19]: 5.1 | ΔTm (Quadruplex DNA [20]): 1.4 °C | Activity (Quadruplex DNA [21]): Active

N#Cc1cc2ccc(N3CCCCC3)cc2n2c1nc1cccnc12
pIC50 (NCI-H460): ≤ 4.00 | pIC50 (HCT-116): 5.26 | pIC50 (MCF7): 5.52

N#Cc1c(N2CCCCC2)c2ccc(N3CCCCC3)cc2n2c1nc1cccnc12
pIC50 (NCI-H460): ≤ 4.00 | pIC50 (HCT-116): 6.00 | pIC50 (MCF7): 6.30 | pIC50 (HEK293): < 4.00

N#Cc1c(N2CCCCC2)c2ccccc2n2c1nc1cccnc12
pIC50 (NCI-H460): ≤ 4.00 | pIC50 (HCT-116): 4.33 | pIC50 (MCF7): 4.80

N#Cc1c(Cl)c2ccc(F)cc2n2c1nc1cccnc12
pIC50 (NCI-H460): ≤ 4.00 | pIC50 (HCT-116): 5.52 | pIC50 (MCF7): 5.70

CC(C)CNc1ccc2c(NCC(C)C)c(C#N)c3nc4cccnc4n3c2c1
pIC50 (NCI-H460): 5.27 | pIC50 (HCT-116): 5.52 | pIC50 (MCF7): 5.74

CC(C)CNc1ccc2cc(C#N)c3nc4cccnc4n3c2c1
pIC50 (NCI-H460): 6.52 | pIC50 (HCT-116): 6.30 | pIC50 (MCF7): 6.40 | pIC50 (HEK293): 6.30

CC(C)CNc1ccc2c(NCC(C)C)c(C#N)c3nc4ncccc4n3c2c1
pIC50 (NCI-H460): 5.12 | pIC50 (HCT-116): 5.43 | pIC50 (MCF7): 5.70 | Activity (Quadruplex DNA [21]): Active

N#Cc1cc2ccc(N3CCNCC3)cc2n2c1nc1ncccc12
pIC50 (NCI-H460): 5.15 | pIC50 (HCT-116): 6.05 | pIC50 (MCF7): 5.51

N#Cc1c(N2CCNCC2)c2ccc(N3CCNCC3)cc2n2c1nc1cccnc12
Ratio (Quadruplex DNA [1]): 0.77 | Ratio [2]: 0.3 | Ratio [3]: 0.1 | pIC50 (NCI-H460): 6.15 | Activity [4]: Active | pIC50 (HCT-116): 6.40 | Ratio [5]: 0.2 | pIC50 (MCF7): 6.40 | log Ks [6]: 6.8 | log Ks (Quadruplex DNA [7]): 5.04 | Ratio [8]: 2 | Activity [9]: Active | Ratio (Calf thymus DNA [10]): 0.3 | ΔTm (Calf thymus DNA [11]): 7.5 °C | Ratio (Quadruplex DNA [22]): 0.81 | pIC50 (HEK293): 6.70 | Ratio (Calf thymus DNA [12]): 0.1 | Activity [23]: Active | log Ks [13]: 6.6 | log Ks (Quadruplex DNA [24]): 6.85 | ΔTm [14]: 14.3 °C | log Ks (Calf thymus DNA [15]): 6.3 | Ratio [16]: 1.5 | ΔTm [17]: 15 °C | Ratio [18]: < 0.1 | log Ks [19]: 6.8

N#Cc1cc2ccc(N3CCNCC3)cc2n2c1nc1cccnc12
pIC50 (NCI-H460): 6.40 | pIC50 (HCT-116): 6.40 | pIC50 (MCF7): 6.40 | pIC50 (HEK293): 6.15

N#Cc1cc2ccc(N3CCCCC3)cc2n2c1nc1ncccc12
pIC50 (NCI-H460): 4.31 | pIC50 (HCT-116): 5.00 | pIC50 (MCF7): 5.30
